The text below walks through data of patent publication US20090012326A1 (priority 2006, published 2009).

Series [1] has as its system Wistar rats intoxicated with PQ.
Procedure: The study was performed using (n=84) adults male Wistar rats obtained from Charles River S. A. (Barcelona, Spain), with a mean weight of 250±10 g. Animals were randomly distributed in number of two per polypropylene cages with a stainless steel net at the top and wood chips at the screen bottom, in a air-conditioned room (alternate cycles of 12 hours light and darkness, room temperature 22±2° C. and with a relative humidity of 50-60%) at least one week (quarantine) before starting the experience in order to acclimate to their surrounding conditions. Animals were allowed access to tap water and rat chow ad libitum during the quarantine period. Housing and experimental treatment of animals were in accordance with National Institutes of Health guidelines (ILAR 1996). The experiments complied with the current laws of Portugal.
(§1) The biochemical and histological studies were carried out with 60 animals, randomly distributed to ten groups. Each animal was individually housed during the experimental period in a polypropylene cage with a stainless steel net at the top and wood chips at the screen bottom. Tap water and rat chow were given ad libitum during the entire experiment. […] Each group was treated as follows: (doses were given per Kg/body weight):
For the evaluation of survival rate, 24 animals were randomly divided into four groups (control, NaSAL, PQ and PQ+NaSAL) of six animals each. […]
For series [2] the following is noted: cited from earlier work.
For series [3], the system named is lung tissue of Wistar rats. The following applies: rat, in vivo.
Procedure: as §1
(I) Control group, n=6: animals treated with 0.9% NaCl. Animals were treated with one more administration of 0.9% NaCl two hours later and sacrificed 24 hours after the second injection;
(II) NaSAL group, n=18: animals treated with 0.9% NaCl. Animals were treated with one administration of NaSAL (200 mg/kg) two hours later and sacrificed 24 hours (n=6, NaSAL 24 h group), 48 hours (n=6, NaSAL 48 h group) and 96 hours (n=6, NaSAL 96 h group) after the second injection;
(III) PQ group, n=18: animals intoxicated with PQ (25 mg/kg). Animals were treated with one more administration of 0.9% NaCl two hours later and sacrificed 24 hours (n=6, PQ 24 h group), 48 hours (n=6, PQ 48 h group) and 96 hours (n=6, PQ 96 h group) after the second injection;
(IV) PQ+NaSAL group, n=18: animals intoxicated with PQ (25 mg/kg). Two hours later, animals were treated with NaSAL (200 mg/kg) and sacrificed 24 hours (n=6, PQ+NaSAL 24 h group), 48 hours (n=6, PQ+NaSAL 48 h group) and 96 hours (n=6, PQ+NaSAL 96 h group) after the second injection.
Two animals of each group were assigned to histological analysis. Lung samples were subjected to routine procedures for light microscopy (LM) and transmission electron microscopy (TEM) analysis. With the animals under anaesthesia, lung fixation was initiated in situ by perfusion through pulmonary artery, with 2.5% glutaraldehyde in 0.2 M sodium cacodylate buffer (pH 7.2-7.4) during 3 min. Subsequently, lungs were excised and sectioned into approximately 1 mm^3 cubic pieces. After two washing steps, of 30 minutes each with buffer solution, the specimens were dehydrated in graded alcohol for 2 hours, and then embedded in Epon resin. […]

Entries after “also recorded” stand apart in the source; their conditions may differ.

In turn, `O=C([O-])c1ccccc1O.[Na+]` [sodium salicylate, 2-hydroxybenzoic acid sodium salt] yielded a survival in series [1] (PQ 25 mg/Kg i.p., sodium salicylate 200 mg/Kg i.p. two hours after PQ, 30 days after PQ) of 100%.

`CC(=O)Oc1ccccc1C(=O)O` [acetylsalicylic acid]: the “share of the total plasma salicylate in the acetylated form” value in series [2] (30 minutes after a dose of 0.65 g) was 27%. In series [2] (in vivo), the plasma half-life entry is reported as “about 15 min”.

Consider `C[n+]1ccc(-c2cc[n+](C)cc2)cc1.[Cl-].[Cl-]` [paraquat, 1,1′-dimethyl-4,4′-bipyridinium dichloride], for which the “lung structure (light and electron micrographs)” value in series [3] was “a marked vascular congestion and a notorious generalized alveolar collapse; also recorded: areas of necrosis of the alveolar wall and macrophages, cellular debris and inflammatory infiltrate within the alveolar space; also recorded: an intense vascular congestion as well as the presence of cellular debris and phagocytes within the alveolar space”. In addition, in series [1] (intraperitoneal PQ dose, absence of treatment, at the end of 6 days), the lethality was found to be 100%.
